Measurements as given in US11298363B2, “Triazolobenzazepines as vasopressin V1a receptor antagonists” (RICHTER GEDEON NYRT., priority 2017, dated 2022).

Tests used:
[1] = biological target: mouse V1a receptor (Mus musculus, UniProt Q62463); test: Functional V1a in vivo test: inhibition of oxytocin-induced scratching behaviour; details: mice, 10 mg/kg p.o. pretreatment
Protocol: Functional V1a In Vivo Test
Male mice (NMRI, ToxiCoop) weighing 18-40 g were used. Animals were kept at least 5 days after delivery, during housing and measurements they were fed and drink ad libitum. The experiments were permitted by the Local Animal Protection Committee and carried out in accordance with the European Animal Protection Directives (EU Directive 2010/63/EU).
Animal behaviour was measured by an automated behavioral analysis system (LABORAS™). The sensors located below platforms detect the mechanical vibration generated by the movement of animal, and transform into an electrical signal (Quinn et al., J Neurosci Methods 2003, 130:83-92). After analyzing signals, the system analyzes the time spent with the following behavioral parameters: locomotion, immobility, climbing, grooming. The grooming algorithm by definition is able to measure the scratching behavioral response. During the experiment, mice were pretreated with the test substance or vehicle, and after the pretreatment period scratching-inducing compound (s.c. 0.3 mg/kg oxytocin) was administered, and then the animals were individually placed into measuring cages. […] To reduce the exploratory activity, the animals were measured after a 1-hour habituation to the cage. The behavioural parameters were compared to the parallel measured parameters of the control animals.
The behavioural inhibitory effect of the substances was calculated with average values of parallel measured vehicle treated groups and presented as the percentage of inhibition: 0% was expressed as average value of scratching behaviour of vehicle pretreated animals (and phys. saline s.c. pretreated with vehicle), while 100% was expressed as average value of scratching of vehicle pretreated animals that received oxytocin subcutaneously. For statistical analysis one-way analysis of variance (ANOVA) with Tukey post hoc test were used.

[2] = biological target: T1, human vasopressin V1a receptor (Homo sapiens, UniProt P37288); test: Human vasopressin V1a receptor binding assay; details: 1321N1 cell membranes, [3H]vasopressin; read-out: Ki (nM) on hV1a cell line
Procedure, shortened: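 Ki values come from IC50 via Cheng-Prusoff (KD from prior Scatchard), averaged over at least two independent runs. Human V1a membranes were incubated with radioligand 60 minutes at 27° C., bound ligand collected by filtration; (Arg^8)-vasopressin at 1.2×10^−6 M defined non-specific binding.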

[3] = biological target: T1, human vasopressin V1a receptor; test: Functional assay on human vasopressin V1a receptor expressing cell line (intracellular Ca2+ fluorescence); type: cell-based; details: 1321N1 cells, (Arg8)-vasopressin at EC80; read-out: IC50 (nM) on hV1a cell line

mouse V1a receptor, sequence (Q62463 whole entry): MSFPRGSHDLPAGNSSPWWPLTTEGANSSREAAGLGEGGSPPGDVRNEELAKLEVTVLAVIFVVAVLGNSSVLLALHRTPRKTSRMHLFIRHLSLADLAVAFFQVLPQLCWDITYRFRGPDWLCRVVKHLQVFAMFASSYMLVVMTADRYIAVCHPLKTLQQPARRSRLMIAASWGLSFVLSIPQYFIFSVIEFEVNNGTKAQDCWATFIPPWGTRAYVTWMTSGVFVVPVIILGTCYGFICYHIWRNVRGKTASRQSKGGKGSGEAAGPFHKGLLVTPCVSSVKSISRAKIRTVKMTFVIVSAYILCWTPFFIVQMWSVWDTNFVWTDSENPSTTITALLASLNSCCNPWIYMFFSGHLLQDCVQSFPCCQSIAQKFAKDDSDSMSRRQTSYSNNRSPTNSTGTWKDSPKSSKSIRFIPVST
T1 sequence (P37288 whole entry): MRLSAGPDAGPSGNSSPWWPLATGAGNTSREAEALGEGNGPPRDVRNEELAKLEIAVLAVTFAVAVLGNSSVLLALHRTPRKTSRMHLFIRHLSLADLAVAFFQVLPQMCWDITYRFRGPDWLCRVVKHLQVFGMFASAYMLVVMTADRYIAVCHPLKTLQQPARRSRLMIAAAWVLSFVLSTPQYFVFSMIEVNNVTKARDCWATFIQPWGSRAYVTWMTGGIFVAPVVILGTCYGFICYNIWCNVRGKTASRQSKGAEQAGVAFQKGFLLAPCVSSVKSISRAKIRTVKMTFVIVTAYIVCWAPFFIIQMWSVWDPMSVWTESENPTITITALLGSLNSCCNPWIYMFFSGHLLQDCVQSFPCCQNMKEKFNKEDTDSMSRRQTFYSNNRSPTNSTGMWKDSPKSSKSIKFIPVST

SMILES	inhibition (%) of oxytocin-induced scratching behaviour response [1] [%]	Ki [2] [nM]	IC50 [3] [nM]
COC1Cc2cc(Cl)ccc2-n2c(nnc2[C@H]2CC[C@H](Oc3ccccn3)CC2)C1 (mixture of isomers) [Example 58, 8-chloro-5-methoxy-1-[trans-4-(pyridin-2-yloxy)cyclohexyl]-5,6-dihydro-4H-[1,2,4]triazolo[4,3-a][1]benzazepine]	96	0.3	1.4
COC1Cc2cc(Cl)ccc2-n2c(nnc2[C@H]2CC[C@H](C(F)(F)F)CC2)C1 (mixture of isomers) [Example 74, 8-chloro-5-methoxy-1-[trans-4-(trifluoromethyl)cyclohexyl]-5,6-dihydro-4H-[1,2,4]triazolo[4,3-a][1]benzazepine]	30	4	2.6
CO[C@H]1Cc2cc(Cl)ccc2-n2c(nnc2[C@H]2CC[C@H](Oc3ccccn3)CC2)C1 (single isomer, unassigned) [Example 103]	71	0.2	0.7
CO[C@@H]1Cc2cc(Cl)ccc2-n2c(nnc2[C@H]2CC[C@H](Oc3ccccn3)CC2)C1 (single isomer, unassigned) [Example 104]	67	0.2	0.6
NCC(=O)N[C@@H]1Cc2cc(Cl)ccc2-n2c(nnc2[C@H]2CC[C@H](Oc3ccccn3)CC2)C1 [Example 12, N-{(5R)-8-chloro-1-[trans-4-(pyridin-2-yloxy)cyclohexyl]-5,6-dihydro-4H-[1,2,4]triazolo[4,3-a][1]benzazepin-5-yl}glycinamide]	34	0.8	9
CCNC1Cc2cc(Cl)ccc2-n2c(nnc2[C@H]2CC[C@H](Oc3ccccn3)CC2)C1 (stereo partly drawn) [Example 23, 8-chloro-N-ethyl-1-[trans-4-(pyridin-2-yloxy)cyclohexyl]-5,6-dihydro-4H-[1,2,4]triazolo[4,3-a][1]benzazepine-5-amine]	75	1	6.4
Clc1ccc2c(c1)CC(NC1CCOCC1)Cc1nnc([C@H]3CC[C@H](Oc4ccccn4)CC3)n1-2 (stereo partly drawn) [Example 29, 8-chloro-1-[trans-4-(pyridin-2-yloxy)cyclohexyl]-N-(tetrahydro-2H-pyran-4-yl)-5,6-dihydro-4H-[1,2,4]triazolo[4,3-a][1]benzazepine-5-amine]	89	0.6	5.4
O[C@H]1Cc2cc(Cl)ccc2-n2c(nnc2[C@H]2CC[C@H](Oc3ccccn3)CC2)C1 [Example 56, (5S)-8-chloro-1-[trans-4-(pyridin-2-yloxy)cyclohexyl]-5,6-dihydro-4H-[1,2,4]triazolo[4,3-a][1]benzazepin-5-ol]	92	0.3	1.2
CN(C)CCOC1Cc2cc(Cl)ccc2-n2c(nnc2[C@H]2CC[C@H](Oc3ccccn3)CC2)C1 (stereo partly drawn) [Example 60, 2-({8-chloro-1-[trans-4-(pyridin-2-yloxy)cyclohexyl]-5,6-dihydro-4H-[1,2,4]triazolo[4,3-a][1]benzazepin-5-yl}oxy)-N,N-dimethylethanamine]	40	2	45
FC(F)(F)[C@H]1CC[C@H](c2nnc3n2-c2ccc(Cl)cc2CC2(C3)OCCO2)CC1 [Example 61, 8′-chloro-1′-[trans-4-(trifluoromethyl)cyclohexyl]-4′H,6′H-spiro[1,3-dioxolane-2,5′-[1,2,4]triazolo[4,3-a][1]benzazepine]]	41	0.4	2.5
N#Cc1ccc2c(c1)CC1(Cc3nnc([C@H]4CC[C@H](Oc5ccccn5)CC4)n3-2)OCCO1 [Example 66, 1′-[trans-4-(pyridin-2-yloxy)cyclohexyl]-4′H,6′H-spiro[1,3-dioxolane-2,5′-[1,2,4]triazolo[4,3-a][1]benzazepine]-8′-carbonitrile]	76	0.8	2.2
Clc1ccc2c(c1)CC1(Cc3nnc([C@H]4CC[C@H](Oc5ccccn5)CC4)n3-2)OCCCO1 [Example 88, 8′-chloro-1′-[trans-4-(pyridin-2-yloxy)cyclohexyl]-4′H,6′H-spiro[1,3-dioxane-2,5′-[1,2,4]triazolo[4,3-a][1]benzazepine]]	79	0.3	0.9
FC(F)(F)[C@H]1CC[C@H](c2nnc3n2-c2ccc(Cl)cc2CC2(C3)OCCCO2)CC1 [Example 89, 8′-chloro-1′-[trans-4-(trifluoromethyl)cyclohexyl]-4′H,6′H-spiro[[1,3]dioxane-2,5′-[1,2,4]triazolo[4,3-a][1]benzazepine]]	50	0.4	1.9
Fc1ccc2c(c1)CC1(Cc3nnc([C@H]4CC[C@H](Oc5ccccn5)CC4)n3-2)OCCO1 [Example 96, 8′-fluoro-1′-[trans-4-(pyridin-2-yloxy)cyclohexyl]-4′H,6′H-spiro[1,3-dioxolane-2,5′-[1,2,4]triazolo[4,3-a][1]benzazepine]]	49	0.2	0.8
CCN[C@@H]1Cc2cc(Cl)ccc2-n2c(nnc2[C@H]2CC[C@H](Oc3ccccn3)CC2)C1 [Example 99, (5R)-8-chloro-N-ethyl-1-[trans-4-(pyridin-2-yloxy)cyclohexyl]-5,6-dihydro-4H-[1,2,4]triazolo[4,3-a][1]benzazepin-5-amine]	60	0.3	2.5
CN[C@@H]1Cc2cc(Cl)ccc2-n2c(nnc2[C@H]2CC[C@H](Oc3ccccn3)CC2)C1 [Example 100, (5R)-8-chloro-N-methyl-1-[trans-4-(pyridin-2-yloxy)cyclohexyl]-5,6-dihydro-4H-[1,2,4]triazolo[4,3-a][1]benzazepin-5-amine]	96	0.2	1.5
CN(C)[C@@H]1Cc2cc(Cl)ccc2-n2c(nnc2[C@H]2CC[C@H](Oc3ccccn3)CC2)C1 [Example 101, (5R)-8-chloro-N,N-dimethyl-1-[trans-4-(pyridin-2-yloxy)cyclohexyl]-5,6-dihydro-4H-[1,2,4]triazolo[4,3-a][1]benzazepin-5-amine]	105	0.2	1.3
O=C(N[C@@H]1Cc2cc(Cl)ccc2-n2c(nnc2[C@H]2CC[C@H](Oc3ccccn3)CC2)C1)C1CC1 [Example 126, N-{(5R)-8-chloro-1-[trans-4-(pyridin-2-yloxy)cyclohexyl]-5,6-dihydro-4H-[1,2,4]triazolo[4,3-a][1]benzazepin-5-yl}cyclopropanecarboxamide]	43	0.6	1.8
Clc1ccc2c(c1)CC1(Cc3nnc([C@H]4CCN(Cc5cccnc5)C4)n3-2)OCCO1 [Example 249, 8′-chloro-1-[(3S)-1-(pyridin-3-ylmethyl)pyrrolidin-3-yl]-4′H,6′H-spiro[1,3-dioxolane-2,5′-[1,2,4]triazolo[4,3-a][1]benzazepine]]		0.8	7
Clc1ccc2c(c1)CC1(Cc3nnc([C@@H]4CCN(Cc5cccnc5)C4)n3-2)OCCO1 [Example 250, 8′-chloro-1′-[(3R)-1-(pyridin-3-ylmethyl)pyrrolidin-3-yl]-4′H, 6′H-spiro[1,3-dioxolane-2,5′-[1,2,4]triazolo[4,3-a][1]benzazepine]]		2.9	27
COC1Cc2cc(Cl)ccc2-n2c(nnc2[C@H]2CCN(Cc3cccnc3)C2)C1 (stereo partly drawn) [Example 251, 8-chloro-5-methoxy-1-[(3S)-1-(pyridin-3-ylmethyl)pyrrolidin-3-yl]-5,6-dihydro-4H-[1,2,4]triazolo[4,3-a][1]benzazepine]		18.5	152
Clc1ccc2c(c1)CC1(Cc3nnc([C@H]4CCN(Cc5ccccn5)C4)n3-2)OCCO1 [Example 252, 8′-chloro-1′-[(3S)-1-(pyridin-2-ylmethyl)pyrrolidin-3-yl]-4′H,6′H-spiro[1,3-dioxolane-2,5′-[1,2,4]triazolo[4,3-a][1]benzazepine]]		0.7	8.2
COC1Cc2cc(Cl)ccc2-n2c(nnc2[C@H]2CCN(Cc3ccccn3)C2)C1 (stereo partly drawn) [Example 253, 8-chloro-5-methoxy-1-[(3S)-1-(pyridin-2-ylmethyl)pyrrolidin-3-yl]-5,6-dihydro-4H-[1,2,4]triazolo[4,3-a][1]benzazepine]		5	66
